Laboratory results: US8394848B2, “Compounds that modulate intracellular calcium” (Calcimedica, Inc., priority 2008, dated 2013)

System: JR251 or RBL cells
Test: Store-operated calcium entry, either JR251 or RBL cells, or both
Format: cell-based
Description: The day prior to performing the assay, RBL-2H3 cells are plated in 50 μL of complete medium in a 384 well plate. Cells are grown at 37° C./6% CO2 overnight and grow to 50-60% confluence by the next day. On the assay day, 1.5 μM Fluo-4-AM dye (Invitrogen) in complete medium is added and incubated for 1 hour at RT. Cells are washed twice in Ca^2+-free HBSS buffer and 35 μL Ca^2+-free HBSS buffer is added to each well. 10 μL of a test compound prepared in a Ca^2+-free HBSS solution at 4.5× of the desired concentration is added to a well and incubated for 5 minutes at RT. 10 μL of thapsigargin prepared in a Ca^2+-free HBSS solution at 5.5× of the desired concentration (5.5 uM) is added to each well and incubated for an additional 25 minutes. The initial baseline fluorescence signal is measured with a FLIPR^384 (Molecular Devices) plate reader. 5 μL of 12× calcium in HBSS (12 mM) is added and changes in cellular fluorescence are measured with the FLIPR^384 plate reader. In each well, the change in the fluorescent signal as a function of time due to calcium entry into the cell is determined by calculating the difference between the fluorescent signal measured 7 seconds after calcium addition and the initial baseline fluorescence signal at time zero (t=0). This parameter is designated Upslope. The IC50 value is calculated as the concentration at which 50% of the Upslope is inhibited.

| IC50 [µM] | Structure (SMILES) |
| --- | --- |
| < 10 | O=C(Nc1scc(-c2ccc(Br)cc2)c1C(=O)O)c1cccnc1 [4-(4-bromophenyl)-2-(nicotinamido)thiophene-3-carboxylic acid] |
| < 10 | Cc1ccc(-c2csc(NC(=O)c3nc4cccc(Br)c4o3)c2C(=O)O)c(F)c1F [2-(7-bromobenzo[d]oxazole-2-carboxamido)-4-(2,3-difluoro-4-methylphenyl)thiophene-3-carboxylic acid] |
| < 10 | O=C(Nc1scc(-c2ccc3c(c2)CCC3)c1C(=O)O)c1nc2ccccc2o1 [2-(benzo[d]oxazole-2-carboxamido)-4-(2,3-dihydro-1H-inden-5-yl)thiophene-3-carboxylic acid] |
| < 10 | COc1ccc(-c2csc(NC(=O)CCc3ccccc3)c2C(=O)O)cc1 [4-(4-methoxyphenyl)-2-(3-phenylpropanamido)thiophene-3-carboxylic acid] |
| < 10 | O=C(Nc1scc(-c2ccc(Cl)cc2F)c1C(=O)O)c1nc2ccccc2o1 [2-(benzo[d]oxazole-2-carboxamido)-4-(4-chloro-2-fluorophenyl)thiophene-3-carboxylic acid] |
| < 10 | N#Cc1ccccc1CCC(=O)Nc1scc(-c2ccc(Cl)cc2)c1C(=O)O [4-(4-chlorophenyl)-2-(3-(2-cyanophenyl)propanamido)thiophene-3-carboxylic acid] |
| < 10 | CS(=O)(=O)c1csc(C(=O)Nc2scc(-c3ccc(Cl)cc3)c2C(=O)O)c1Cl [2-(3-chloro-4-(methylsulfonyl)thiophene-2-carboxamido)-4-(4-chlorophenyl)thiophene-3-carboxylic acid] |
| < 10 | O=C(O)c1c(-c2ccc(Br)cc2)csc1NC(=O)C1CCc2ccccc2C1 (centres unmarked) [4-(4-bromophenyl)-2-(1,2,3,4-tetrahydronaphthalene-2-carboxamido)thiophene-3-carboxylic acid] |
| < 10 | Cc1ccc(-c2csc(NC(=O)c3nc4cc(F)ccc4o3)c2C(=O)O)c(F)c1F [4-(2,3-difluoro-4-methylphenyl)-2-(5-fluorobenzo[d]oxazole-2-carboxamido)thiophene-3-carboxylic acid] |
| < 10 | Cc1ccc(-c2csc(NC(=O)c3sccc3C)c2C(=O)O)cc1 [2-(3-methylthiophene-2-carboxamido)-4-p-tolylthiophene-3-carboxylic acid] |
| < 10 | O=C(Nc1scc(-c2ccc(Cl)cc2)c1C(=O)O)c1ccc2ccccc2n1 [4-(4-chlorophenyl)-2-(quinoline-2-carboxamido)thiophene-3-carboxylic acid] |
| < 10 | COc1cccc(CCC(=O)Nc2scc(-c3ccc(Br)cc3)c2C(=O)O)c1 [4-(4-bromophenyl)-2-(3-(3-methoxyphenyl)propanamido)thiophene-3-carboxylic acid] |
| < 10 | Cc1ccc(-c2csc(NC(=O)/C=C/c3ccco3)c2C(=O)O)cc1 [(E)-2-(3-(furan-2-yl)acrylamido)-4-p-tolylthiophene-3-carboxylic acid] |
| < 10 | Cc1ccsc1C(=O)Nc1scc(-c2ccc(Cl)cc2)c1C(=O)O [4-(4-chlorophenyl)-2-(3-methylthiophene-2-carboxamido)thiophene-3-carboxylic acid] |
| < 10 | O=C(CCCCc1ccccc1)Nc1scc(-c2ccc(Cl)cc2)c1C(=O)O [4-(4-chlorophenyl)-2-(5-phenylpentanamido)thiophene-3-carboxylic acid] |
| < 10 | COc1cccc2c1CC(C(=O)Nc1scc(-c3ccc(Br)cc3)c1C(=O)O)CC2 (centres unmarked) [4-(4-bromophenyl)-2-(8-methoxy-1,2,3,4-tetrahydronaphthalene-2-carboxamido)thiophene-3-carboxylic acid] |
| < 10 | O=C(NCc1ccccc1F)Nc1scc(-c2ccc(Cl)cc2)c1C(=O)O [4-(4-chlorophenyl)-2-(3-(2-fluorobenzyl)ureido)thiophene-3-carboxylic acid] |
| < 10 | O=C(CCc1cccc(F)c1)Nc1scc(-c2ccc(Br)cc2)c1C(=O)O [4-(4-bromophenyl)-2-(3-(3-fluorophenyl)propanamido)thiophene-3-carboxylic acid] |
| < 10 | O=C(CCc1ccccc1)Nc1scc(-c2ccc(O)cc2)c1C(=O)O [4-(4-hydroxyphenyl)-2-(3-phenylpropanamido)thiophene-3-carboxylic acid] |
| < 10 | Cc1ccc(-c2csc(NC(=O)c3nc4ccccc4o3)c2C(=O)O)cc1F [2-(benzo[d]oxazole-2-carboxamido)-4-(3-fluoro-4-methylphenyl)thiophene-3-carboxylic acid] |
| < 10 | CCc1cccc(NC(=O)Nc2scc(-c3ccc(Br)cc3)c2C(=O)O)c1 [4-(4-bromophenyl)-2-(3-(3-ethylphenyl)ureido)thiophene-3-carboxylic acid] |

| IC50 [µM] | Structure (SMILES) |
| --- | --- |
| < 10 | O=C(Nc1scc(-c2ccc(Cl)cc2)c1C(=O)O)c1cc2ncccn2n1 [4-(4-chlorophenyl)-2-(pyrazolo[1,5-a]pyrimidine-2-carboxamido)thiophene-3-carboxylic acid] |
| < 10 | Cn1nc(C(=O)Nc2scc(-c3ccc(Cl)cc3)c2C(=O)O)cc1-c1ccccc1 [4-(4-chlorophenyl)-2-(1-methyl-5-phenyl-1H-pyrazole-3-carboxamido)thiophene-3-carboxylic acid] |
| < 10 | O=C(Nc1scc(-c2ccc(Cl)c(F)c2F)c1C(=O)O)c1nc2ccccc2s1 [2-(benzo[d]thiazole-2-carboxamido)-4-(4-chloro-2,3-difluorophenyl)thiophene-3-carboxylic acid] |
| < 10 | COc1cc(F)c(-c2csc(NC(=O)c3cc4ccccc4o3)c2C(=O)O)cc1F [2-(benzofuran-2-carboxamido)-4-(2,5-difluoro-4-methoxyphenyl)thiophene-3-carboxylic acid] |
| < 10 | O=C(Nc1scc(-c2ccc(Cl)cc2)c1C(=O)O)c1ccc2ncsc2c1 [2-(benzo[d]thiazole-6-carboxamido)-4-(4-chlorophenyl)thiophene-3-carboxylic acid] |
| < 10 | O=C(Nc1scc(-c2cc3cccc(O)c3o2)c1C(=O)O)c1cc2c(F)cccc2o1 [2-(4-fluorobenzofuran-2-carboxamido)-4-(7-hydroxybenzofuran-2-yl)thiophene-3-carboxylic acid] |
| < 10 | O=C(Nc1scc(-c2cc3cccc(O)c3o2)c1C(=O)O)c1cc2cccc(O)c2o1 [2-(7-hydroxybenzofuran-2-carboxamido)-4-(7-hydroxybenzofuran-2-yl)thiophene-3-carboxylic acid] |
| < 10 | O=C(O)c1c(-c2ccccc2Br)csc1NC(=O)C1CC1 [4-(2-bromophenyl)-2-(cyclopropanecarboxamido)thiophene-3-carboxylic acid] |
| < 10 | O=C(CCc1c(Cl)cccc1Cl)Nc1scc(-c2ccc(Br)cc2)c1C(=O)O [4-(4-bromophenyl)-2-(3-(2,6-dichlorophenyl)propanamido)thiophene-3-carboxylic acid] |
| < 10 | O=C(CCCc1ccccc1)Nc1scc(-c2ccc(Cl)cc2)c1C(=O)O [4-(4-chlorophenyl)-2-(4-phenylbutanamido)thiophene-3-carboxylic acid] |
| < 10 | Cc1ccc(-c2csc(NC(=O)c3nc4c(F)cccc4s3)c2C(=O)O)c(F)c1F [4-(2,3-difluoro-4-methylphenyl)-2-(4-fluorobenzo[d]thiazole-2-carboxamido)thiophene-3-carboxylic acid] |
| < 10 | COc1ccc2oc(-c3csc(NC(=O)c4cc5ccccc5o4)c3C(=O)O)cc2c1 [2-(benzofuran-2-carboxamido)-4-(5-methoxybenzofuran-2-yl)thiophene-3-carboxylic acid] |
| < 10 | CC(C(=O)Nc1scc(-c2ccc(Cl)cc2)c1C(=O)O)C(C)c1ccccc1 (centres unmarked) [4-(4-chlorophenyl)-2-(2-methyl-3-phenylbutanamido)thiophene-3-carboxylic acid] |
| < 10 | O=C(Nc1scc(-c2cc(F)c(F)c(F)c2)c1C(=O)O)c1nc2ccccc2o1 [2-(benzo[d]oxazole-2-carboxamido)-4-(3,4,5-trifluorophenyl)thiophene-3-carboxylic acid] |
| < 10 | O=C(O)c1c(-c2ccc(Cl)cc2)csc1NC(=O)C(Cl)Cc1ccccc1 (centres unmarked) [2-(2-chloro-3-phenylpropanamido)-4-(4-chlorophenyl)thiophene-3-carboxylic acid] |
| < 10 | O=C(Nc1scc(-c2ccc3c(c2)CCO3)c1C(=O)O)c1nc2ccccc2o1 [2-(benzo[d]oxazole-2-carboxamido)-4-(2,3-dihydrobenzofuran-5-yl)thiophene-3-carboxylic acid] |
| < 10 | COc1cccc(CC(=O)Nc2scc(-c3ccc(Cl)c(Cl)c3)c2C(=O)O)c1 [4-(3,4-dichlorophenyl)-2-(2-(3-methoxyphenyl)acetamido)thiophene-3-carboxylic acid] |
| < 10 | O=C(O)c1c(-c2ccc(Cl)cc2)csc1NC(=O)C1Cc2ccc(F)cc2C1 (centres unmarked) [4-(4-chlorophenyl)-2-(5-fluoro-2,3-dihydro-1H-indene-2-carboxamido)thiophene-3-carboxylic acid] |
| < 10 | Cc1oc(-c2ccccc2)cc1C(=O)Nc1scc(-c2ccc(Cl)cc2)c1C(=O)O [4-(4-chlorophenyl)-2-(2-methyl-5-phenylfuran-3-carboxamido)thiophene-3-carboxylic acid] |
| < 10 | Cc1noc(C)c1C(=O)Nc1scc(-c2ccc(Cl)cc2)c1C(=O)O [4-(4-chlorophenyl)-2-(3,5-dimethylisoxazole-4-carboxamido)thiophene-3-carboxylic acid] |
